This assay addresses T1, GPR119 (Homo sapiens, UniProt Q8TDV5).
T1 construct: host or cells: CHO-K1 (CRE-bla reporter, doxycycline-induced)
T1 sequence (Q8TDV5 1-335): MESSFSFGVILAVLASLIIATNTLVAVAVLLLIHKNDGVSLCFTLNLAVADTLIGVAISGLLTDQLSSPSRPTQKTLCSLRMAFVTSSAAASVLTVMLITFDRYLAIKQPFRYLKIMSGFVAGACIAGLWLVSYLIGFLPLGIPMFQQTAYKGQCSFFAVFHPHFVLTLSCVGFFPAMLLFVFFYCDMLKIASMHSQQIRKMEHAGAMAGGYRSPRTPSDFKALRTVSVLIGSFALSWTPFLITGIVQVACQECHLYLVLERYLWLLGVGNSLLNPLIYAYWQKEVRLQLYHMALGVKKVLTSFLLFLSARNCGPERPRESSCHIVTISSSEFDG
Description: Controlling Effect of GPR119 in CRE-bla CHO-K1 Cells (EC50). As to conditions: GPR119 CRE-bla CHO-K1 cell line, 5 hr incubation with compound, β-lactamase LiveBLAzer-FRET B/G readout; read-out: controlling effect against GPR119 in CRE-bla CHO-K1 cell line (EC50). It is filed as cell-based. How it is done: Controlling Effect of GPR119 in CRE-bla CHO-K1 Cells (EC50)
The day before the experiment, GPR119 CRE-bla CHO-K1 cell line purchased from Invitrogen was seeded in a 96 black well plate in an amount of 80 μl at a density of 5×10^4 cells. After the seeding, 10 μl of doxycycline in a concentration of 1 μg/ml was added to each well and incubated in an incubator at 37° C. under 5% CO2 for about 16 to 20 hr.
The day of experiment, sample compounds were performed a 10-fold serial dilution with a culture medium at various concentrations of 1 uM to […]. Considering that the culture medium used in the seeding and doxycycline are together applied, the sample compounds were diluted to a 5-fold dilution of the planned concentration. 20 μl of the compound diluted with the culture medium was added to each well and incubated in the incubator for 5 hr. The compound-untreated group was added with 20 μl of 0.5% dimethyl sulfoxide (DMSO) diluted with the culture medium. After 5 hr from the incubation, substrate mixture of a 6-fold concentration were prepared; 6 μl of 1 mM LiveBLAzer™-FRET B/G(CCF4-AM) substrate, 60 μl of solution B, 904 μl of solution C and 30 μl of solution D. 12 μl of the substrate mixture was added to each well and allowed to be kept at room temperature for 2 hr with shading the light. Fluorescence intensity value of blue channel and green channel was determined by a fluorescence microplate reader at 409 nm/460 nm and 409 nm/[…] (excitation/emission), respectively. In order to confirm the controlling effect of the inventive compounds against GPR119, EC50 (half maximal effective concentration) was determined based on the determined values. EC50, the concentration at which 50% activity of β-lactamase, was determined according to the following Equation: Equation=[(Ti−Tz)/(C−Tz)]×100
[Wherein, Ti: Cell density of the compound-treated group; Tz: Cell density of the negative control group; and C: Cell density of the positive control group]
Turning to `CS(=O)(=O)c1ccc(-c2csc3c(OC4CCN(c5nc(-c6ccc(F)cc6)no5)CC4)ncnc23)c(F)c1` [Example 65, 5-(4-(7-(2-fluoro-4-methanesulfonyl-phenyl)thieno[3,2-d]pyrimidin-4-yloxy)piperidin-1-yl)-3-(4-fluorophenyl)-1,2,4-oxadiazole], the EC50 is under 100 nM.

As for `CC(C)n1nnc(N2CCC(Oc3ncnc4c(-c5ccc(S(C)(=O)=O)cc5F)csc34)CC2)n1` [Example 94, 7-(2-fluoro-4-methanesulfonyl-phenyl)-4-(1-(2-isopropyl-2H-tetrazol-5-yl)piperidin-4-yloxy)thieno[3,2-d]pyrimidine], the concentration giving a half-maximal response (EC50) was under 100 nM.

For the compound `CS(=O)(=O)c1ccc(-c2csc3c(OC4CCN(c5nc6ccccc6o5)CC4)ncnc23)c(F)c1` [Example 77, 2-(4-(7-(2-fluoro-4-methanesulfonyl-phenyl)thieno[3,2-d]pyrimidin-4-yloxy)piperidin-1-yl)benzo[d]oxazole], the EC50 was under 100 nM.

Turning to `CS(=O)(=O)c1ccc(-c2csc3c(OC4CCN(C#N)CC4)ncnc23)c(F)c1` [Example 75, 4-(7-(2-fluoro-4-methanesulfonyl-phenyl)thieno[3,2-d]pyrimidin-4-yloxy)piperidin-1-carbonitrile], the EC50 lay within 100 to 1000 nM.

With `CC(C)c1noc(N2CCC(Oc3ncnc4c(-c5ccc(S(C)(=O)=O)cc5)csc34)C2)n1` (centres unmarked) [Example 58, 4-[1-(3-isopropyl-[1,2,4]oxadiazol-5-yl)-pyrrolidin-3-yloxy]-7-(4-methanesulfonyl-phenyl)-thieno[3,2-d]pyrimidine], the EC50 was 100 to 1000 nM.

Take `COc1ccc(-c2csc3c(OC4CCN(c5nc(C(C)C)no5)CC4)ncnc23)cc1F` [Example 98, 7-(3-fluoro-4-methoxy-phenyl)-4-[1-(3-isopropyl-[1,2,4]oxadiazol-5-yl)-piperidin-4-yloxy]-thieno[3,2-d]pyrimidine]: the EC50 is over 1000 nM.

For `CCn1cc(-c2ccc(S(C)(=O)=O)cc2F)c2ncnc(OC3CCN(c4nc(C(C)C)no4)CC3)c21` [Example 37, 5-(4-(5-ethyl-7-(2-fluoro-4-methanesulfonyl-phenyl)-5H-pyrrolo[3,2-d]pyrimidin-4-yloxy)piperidin-1-yl)-3-isopropyl-1,2,4-oxadiazole], the EC50 is under 100 nM.

`CCC(C)c1noc(N2CCC(Oc3ncnc4c(-c5ccc(S(C)(=O)=O)cc5F)csc34)CC2)n1` (centres unmarked) [Example 62, 3-sec-butyl-5-(4-(7-(2-fluoro-4-methanesulfonyl-phenyl)thieno[3,2-d]pyrimidin-4-yloxy)piperidin-1-yl)-1,2,4-oxadiazole]: the half-maximal effective concentration (EC50) was under 100 nM.

For the compound `CC(C)c1noc(C2CCN(c3ncnc4c(-c5ccc(S(C)(=O)=O)cc5)cn(C)c34)CC2)n1` [Example 117, 3-isopropyl-5-(1-(5-methyl-7-(4-methanesulfonyl-phenyl)-5H-pyrrolo[3,2-d]pyrimidin-4-yl)piperidin-4-yl)-1,2,4-oxadiazole], the EC50 was in the range of 100 to 1000 nM.

As to `CCc1cnc(N2CCC(Oc3ncnc4c(-c5ccc(S(C)(=O)=O)cc5F)cn(C)c34)CC2)nc1` [Example 29, 4-(1-(5-ethylpyrimidin-2-yl)piperidin-4-yloxy)-7-(2-fluoro-4-methanesulfonyl-phenyl)-5-methyl-5H-pyrrolo[3,2-d]pyrimidine], the concentration giving a half-maximal response (EC50) was under 100 nM.

`CS(=O)(=O)c1ccc(-c2csc3c(OC4CCN(c5nc(C6CCCC6)no5)CC4)ncnc23)c(F)c1` [Example 70, 7-(2-fluoro-4-methanesulfonyl-phenyl)-4-[1-(3-cyclopentyl-[1,2,4]oxadiazol-5-yl)piperidin-4-yloxy]thieno[3,2-d]pyrimidine]: the EC50 is under 100 nM.

As to `CN1CCC(Oc2ncnc3c(-c4ccc(S(C)(=O)=O)cc4F)csc23)CC1` [Example 74, 7-(2-fluoro-4-methanesulfonyl-phenyl)-4-[1-methylpiperidin-4-yloxy]thieno[3,2-d]pyrimidine], the EC50 is over 1000 nM.

As for `CS(=O)(=O)c1ccc(-c2csc3c(OC4CCNCC4)ncnc23)c(F)c1` [Example 76, 7-(2-fluoro-4-methanesulfonyl-phenyl)-4-[piperidin-4-yloxy]thieno[3,2-d]pyrimidine], the EC50 is over 1000 nM.

On to “7-(2-fluoro-4-4-[1-(5-trifluoromethylpyrimidin-2-yl)-piperidin-4-yloxy]-thieno[3,2-d]pyrimidine [Example 82]”, for which the EC50 was under 100 nM.

Consider `CS(=O)(=O)c1ccc(-c2csc3c(OC4CCN(c5ncc(C6CC6)cn5)CC4)ncnc23)c(F)c1` [Example 84, 7-(2-fluoro-4-methanesulfonyl-phenyl)-4-[1-(5-cyclopropyl-pyrimidin-2-yl)-piperidin-4-yloxy]-thieno[3,2-d]pyrimidine], for which the EC50 is under 100 nM.

For the compound `CS(=O)(=O)c1ccc(-c2csc3c(OC4CCN(Cc5ccccc5)CC4)ncnc23)c(F)c1` [Example 91, 4-(1-benzylpiperidin-4-yloxy]-7-(2-fluoro-4-methanesulfonyl-phenyl)thieno[3,2-d]pyrimidine], the concentration giving a half-maximal response (EC50) is under 100 nM.

On to `CC(C)c1nc(N2CCC(Oc3ncnc4c(-c5ccc(S(C)(=O)=O)cc5F)csc34)CC2)no1` [Example 95, 7-(2-fluoro-4-methanesulfonyl-phenyl)-4[1-(5-isopropyl-[1,2,4]oxadiazol-3-yl)-piperidin-4-yloxy]-thieno[3,2d]pyrimidine], for which the EC50 is under 100 nM.

On to `CS(=O)(=O)c1ccc(-c2csc3c(N4CCC(c5nc(-c6ccccc6)no5)CC4)ncnc23)cc1` [Example 8, 5-(1-(7-(4-(methanesulfonylphenyl)phenyl)thieno[3,2-d]pyrimidin-4-yl)piperidin-4-yl)-3-phenyl-1,2,4-oxadiazole], for which the EC50 lay in the range of 100 to 1000 nM.

In the case of `CC(C)c1noc(C2CCN(c3ncnc4c(-c5ccc(-n6cnnn6)cc5)csc34)CC2)n1` [Example 118, 5-(1-(7-(4-(1H-tetrazol-1-yl)phenyl)thieno[3,2-d]pyrimidin-4-yl)piperidin-4-yl)-3-iso propyl-1,2,4-oxadiazole], the EC50 was in the range of 100 to 1000 nM.

As to `CCc1noc(C2CCN(c3ncnc4c(-c5ccc(S(C)(=O)=O)cc5)csc34)CC2)n1` [Example 4, 3-ethyl-5-(1-(7-(4-methanesulfonyl-phenyl)thieno[3,2-d]pyrimidin-4-yl)piperidin-4-yl)-1,2,4-oxadiazole], the EC50 fell in the range of 100 to 1000 nM.

Turning to `CC(C)c1noc(C2CCN(c3ncnc4c(-c5ccc(S(=O)(=O)C6CC6)cc5)csc34)CC2)n1` [Example 21, 7-(4-(cyclopropylsulfonyl)phenyl)-4-[4-(3-isopropyl-[1,2,4]oxadiazol-5-yl)-piperidin-1-yl]-thieno[3,2-d]pyrimidine], the EC50 was under 100 nM.

Turning to `CCc1cnc(N2CCC(Oc3ncnc4c(-c5ccc(S(C)(=O)=O)cc5F)csc34)CC2)nc1` [Example 81, 4-[1-(5-ethylpyrimidin-2-yl)-piperidin-4-yloxy]-7-(2-fluoro-4-methanesulfonyl-phenyl)-thieno[3,2-d]pyrimidine], the EC50 was under 100 nM.

On to `CCCc1cnc(N2CCC(Oc3ncnc4c(-c5ccc(S(C)(=O)=O)cc5F)cn(C)c34)CC2)nc1` [Example 30], for which the EC50 was under 100 nM.

As for `CC(C)c1noc(N2CCC(Oc3ncnc4c(-c5ccc(F)c(F)c5F)csc34)CC2)n1` [Example 97, 4-[1-(3-isopropyl-[1,2,4]oxadiazol-5-yl)-piperidin-4-yloxy]-7-(2,3,4-trifluoro-phenyl)-thieno[3,2-d]pyrimidine], the EC50 was over 1000 nM.

Take `CCc1cnc(N2CCC(Oc3ncnc4c(-c5ccc(S(C)(=O)=O)cc5)cn(C)c34)CC2)nc1` [Example 27, 4-(1-(5-ethylpyrimidin-2-yl)piperidin-4-yloxy)-5-methyl-7-(4-methanesulfonyl-phenyl)-5H-pyrrolo[3,2-d]pyrimidine]: the half-maximal effective concentration (EC50) was under 100 nM.

For the compound `CC(C)c1noc(C2CCN(c3ncnc4c(-c5ccc(S(C)(=O)=O)cc5)csc34)CC2)n1` [Example 5, 3-isopropyl-5-(1-(7-(4-methanesulfonyl-phenyl)thieno[3,2-d]pyrimidin-4-yl)piperidin-4-yl)-1,2,4-oxadiazole], the EC50 is under 100 nM.

For the origin of these results see patent US8853213B2, “Bicyclic compound for modulating G protein-coupled receptors” (Hanmi Pharm. Co., Ltd, priority 2011, dated 2014).
